# Results published in ChEMBL document CHEMBL5252531, “2015 Philip S. Portoghese Medicinal Chemistry Lectureship. Curing Hepatitis C Virus Infection with Direct-Acting Antiviral Agents: The Arc of a Medicinal Chemistry Triumph” (J Med Chem, 2016).
# Key:
# [1] = target: T1, Hepatitis C virus serine protease, NS3/NS4A (Hepatitis C virus, UniProt A3EZI9+D2K2A8); test: Inhibition of HCV NS4A-NS3 protease; assay type: protein-complex assay, Hepacivirus hominis
# [2] = target: T1, Hepatitis C virus serine protease, NS3/NS4A; test: Inhibition of C-terminal HCV NS4A-NS3 protease; assay type: protein-complex assay, Hepacivirus hominis
# Hepatitis C virus [3] = test: Antiviral activity against Hepatitis C virus; assay type: functional, organism-based, Hepacivirus hominis
# [4] = Oral bioavailability in rat plasma; assay type: ADME, organism-based; settings: in vivo
# Hepatitis C virus [5] = test: Antiviral activity against HCV GT1a-genotype assessed as inhibition of viral replication; assay type: functional, organism-based, Hepacivirus hominis
# Hepatitis C virus [6] = test: Antiviral activity against HCV GT1b-genotype assessed as viral growth inhibition measured after 24 hrs; assay type: functional, organism-based, Hepacivirus hominis; settings: Hepatitis C virus, GT1b-genotype, 24 h
# [7] = Solubility in water at pH 7; assay type: physicochemical
# Hepatitis C virus [8] = test: Antiviral activity against HCV genotype 1a; assay type: functional, organism-based, Hepacivirus hominis
# Hepatitis C virus [9] = test: Antiviral activity against HCV genotype 1b; assay type: functional, organism-based, Hepacivirus hominis
# T1 sequence (D2K2A8 whole entry): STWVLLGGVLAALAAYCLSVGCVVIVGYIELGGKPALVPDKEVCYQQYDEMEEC
# T1 sequence (A3EZI9 whole entry): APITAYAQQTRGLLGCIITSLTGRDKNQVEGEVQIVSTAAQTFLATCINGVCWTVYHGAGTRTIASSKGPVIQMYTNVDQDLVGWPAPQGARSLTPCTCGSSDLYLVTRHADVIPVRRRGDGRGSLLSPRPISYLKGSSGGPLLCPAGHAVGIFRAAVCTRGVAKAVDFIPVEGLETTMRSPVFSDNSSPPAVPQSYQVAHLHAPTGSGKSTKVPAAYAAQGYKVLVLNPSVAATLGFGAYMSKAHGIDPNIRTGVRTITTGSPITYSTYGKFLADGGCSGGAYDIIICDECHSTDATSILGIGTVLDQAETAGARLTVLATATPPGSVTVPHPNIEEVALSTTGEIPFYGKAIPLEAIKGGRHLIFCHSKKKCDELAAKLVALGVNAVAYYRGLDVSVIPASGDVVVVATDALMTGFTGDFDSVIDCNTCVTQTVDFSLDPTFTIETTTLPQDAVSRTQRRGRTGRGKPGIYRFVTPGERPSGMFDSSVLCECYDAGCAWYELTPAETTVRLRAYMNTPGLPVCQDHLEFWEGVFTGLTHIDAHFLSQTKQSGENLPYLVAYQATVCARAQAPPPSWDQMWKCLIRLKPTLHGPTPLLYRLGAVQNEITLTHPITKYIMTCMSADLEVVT
SMILES,EC50 (Hepatitis C virus [5]) [nM],EC50 (Hepatitis C virus [6]) [nM],further results
COc1ccc2c(O[C@@H]3C[C@H]4C(=O)N[C@]5(C(=O)O)C[C@H]5/C=C\CCCCC[C@H](NC(=O)OC(C)(C)C)C(=O)N4C3)cc(-c3ccccc3)nc2c1,–,–,IC50 [1]: 3 nM; IC50 [2]: 11 nM; EC50 (Hepatitis C virus [3]): 1.2 nM; F [4]: 42%
CN(C)S(=O)(=O)NC(=O)c1ccc2c(C3CCCCC3)c3n(c2c1)C[C@@]1(C(=O)N2CCOCC2)C[C@H]1c1ccccc1-3,41,51,–
O=C(O)c1ccc2c(C3CCCCC3)c3n(c2c1)CC(C(=O)N1CCOCC1)=Cc1ccccc1-3,404,359,–
CN(C)S(=O)(=O)NC(=O)c1ccc2c(C3CCCCC3)c3n(c2c1)CC(C(=O)N1CCOCC1)=Cc1ccccc1-3,119,148,solubility [7]: < 1 µg/mL
COc1ccc2c(c1)C=C(C(=O)N1CCOCC1)Cn1c-2c(C2CCCCC2)c2ccc(C(=O)NS(=O)(=O)N(C)C)cc21,61,62,–
CN(C)S(=O)(=O)NC(=O)c1ccc2c(C3CCCCC3)c3n(c2c1)C[C@]1(C(=O)N2CCOCC2)C[C@@H]1c1ccccc1-3,472,336,–
CN(C)[C@@H](C(=O)N1CCC[C@H]1c1ncc(-c2ccc(-c3ccc(-c4cnc([C@@H]5CCCN5C(=O)[C@@H](c5ccccc5)N(C)C)[nH]4)cc3)cc2)[nH]1)c1ccccc1,–,–,EC50 (Hepatitis C virus [8]): 0.037 nM; EC50 (Hepatitis C virus [9]): 0.042 nM
